Results from patent US20100256199A1, “Crystalline form of an Antimalarial Compound” (Glaxo Group Limited, priority 2007, published 2010).

Columns and labels:
Assay type in all cases: physicochemical
[1] = Competitive ripening experiments between Form 1 and Form 2 (relative thermodynamic stability)
Experimental: Forms 1 and 2 of the compound of Formula (I) are both stable at ambient temperature. Competitive ripening experiments between Form 1 and 2 of the compound of Formula (I) were conducted in i) a mixture of acetone and 1-propanol at 23° C.; ii) in acetone at 10° C. and iii) in acetone at 50° C.

[2] = Stability of the polymorphic forms at ambient temperature
[3] = Hygroscopicity of the crystalline form

| Polymorphic form conversion in competitive ripening experiments ([1]; i) mixture of acetone and 1-propanol at 23° C.; ii) acetone at 10° C.; iii) acetone at 50° C., same outcome in each) | Stability at ambient temperature [2] | Hygroscopic nature [3] | Compound | Relative thermodynamic stability ([1]; at ambient temperatures, for example at 23° C.) | Relative thermodynamic stability ([1]; between 10° C. and 50° C.) |
| --- | --- | --- | --- | --- | --- |
| converted to Form 2 | stable |  | Cc1[nH]c(CO)c(-c2ccc(Oc3ccc(OC(F)(F)F)cc3)cc2)c(=O)c1Cl [Form 1, 3-chloro-6-(hydroxymethyl)-2-methyl-5-[4-({4-[(trifluoromethyl)oxy]phenyl}oxy)phenyl]-4(1H)-pyridinone] |  |  |
|  |  | non-hygroscopic | Cc1[nH]c(CO)c(-c2ccc(Oc3ccc(OC(F)(F)F)cc3)cc2)c(=O)c1Cl [Form 2, 3-chloro-6-(hydroxymethyl)-2-methyl-5-[4-({4-[(trifluoromethyl)oxy]phenyl}oxy)phenyl]-4(1H)-pyridinone] | thermodynamically more stable than Form 1 | thermodynamically more stable than Form 1 |
